Assay results reported in EP2058306A1, “Heteroaryl-substituted 2-pyridinyl-methylamine derivatives” (SCHWARZ PHARMA AG, priority 2007, dated 2009).
Where two headings read alike, the source gives them in different places.

Key:
[1] = target: T1, 5-HT2 (Sus scrofa, UniProt P50129); assay: radioligand binding assay, serotonin 5-HT2 receptor, [3H]ketanserin; design: species or system porcine
T1 construct: membrane preparations from porcine cortex; from tissue; host or cells: porcine cortex

[2] = target: T2, 5-HT1A (Sus scrofa, UniProt A0A4X1UTF5); assay: radioligand binding assay, serotonin 5-HT1A receptor, [3H]WAY 100635
T2 construct: membrane preparations from porcine cortex; from tissue; host or cells: porcine cortex
T2 sequence (A0A4X1UTF5 1-422): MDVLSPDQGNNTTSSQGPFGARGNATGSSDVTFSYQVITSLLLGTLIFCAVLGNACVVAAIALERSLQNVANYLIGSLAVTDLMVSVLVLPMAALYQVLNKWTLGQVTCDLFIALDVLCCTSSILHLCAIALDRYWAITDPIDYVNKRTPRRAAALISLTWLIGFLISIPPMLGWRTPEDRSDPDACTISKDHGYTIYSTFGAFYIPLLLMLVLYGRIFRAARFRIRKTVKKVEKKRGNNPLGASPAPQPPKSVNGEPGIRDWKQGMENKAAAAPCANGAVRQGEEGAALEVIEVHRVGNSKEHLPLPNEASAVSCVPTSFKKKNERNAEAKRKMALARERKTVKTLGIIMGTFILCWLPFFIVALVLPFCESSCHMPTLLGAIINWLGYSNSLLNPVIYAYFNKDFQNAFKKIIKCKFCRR
Experimental: (§1) The investigation of receptor binding to the serotonin and adrenergic receptors was done according to a published procedure (Heindl, C. et al., Tetrahedron: Asymmetry (2003), 14, 3141-3152). In detail, for the determination of the binding properties to serotonin receptors membrane preparations from porcine cortex was incubated with the 5-HT1A selective radioligand [^3H]WAY 100635 or with the 5-HT2 selective compound [^3H]ketanserin. The measurement of alpha-1 and alpha-2 receptor binding was achieved when utilizing porcine cortical membranes and the selective radioligands [^3H]prazosin (for alpha-1) and [^3H]RX821002 in an assay similar to that described above.
(§2) The results of the binding experiments are summarized in Table 1 as mean values of two to five individual experiments each done in triplicate and expressed as Ki values in nM.

[3] = target: human D3 (Homo sapiens, UniProt P35462); assay: radioligand binding assay, dopamine D3 receptor, [3H]spiperone
Chain of human D3 (P35462 whole entry): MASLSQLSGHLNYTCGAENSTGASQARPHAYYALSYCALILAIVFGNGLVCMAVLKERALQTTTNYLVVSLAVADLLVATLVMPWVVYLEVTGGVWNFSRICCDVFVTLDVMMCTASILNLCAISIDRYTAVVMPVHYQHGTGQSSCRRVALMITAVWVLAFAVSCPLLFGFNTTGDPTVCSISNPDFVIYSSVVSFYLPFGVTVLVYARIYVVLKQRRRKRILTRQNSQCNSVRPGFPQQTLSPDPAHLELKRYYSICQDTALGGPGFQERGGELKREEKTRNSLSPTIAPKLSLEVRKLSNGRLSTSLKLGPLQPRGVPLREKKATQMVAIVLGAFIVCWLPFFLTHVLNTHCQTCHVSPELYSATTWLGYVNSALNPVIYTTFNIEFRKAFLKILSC
Experimental: (§3) These experiments have been done according to methods which are described in literature (Hübner, H. et al., J. Med. Chem. (2000), 43, 7562). For the determination of binding affinity to the receptors of the dopamine D2 family membranes were established carrying the human D2long, D2short, D3 or D4.4 receptor subtype stably expressed in Chinese hamster ovary cell lines. In principle, the binding experiments started when incubating an appropriate amount of membrane with the radioligand [^3H]spiperone and the particular test compounds used in a wide range of different concentrations from subnanomolar up to micromolar ones.

[4] = target: T3, human D4.4 (Homo sapiens, UniProt P21917); assay: radioligand binding assay, dopamine D4.4 receptor, [3H]spiperone
T3 sequence (P21917 1-419): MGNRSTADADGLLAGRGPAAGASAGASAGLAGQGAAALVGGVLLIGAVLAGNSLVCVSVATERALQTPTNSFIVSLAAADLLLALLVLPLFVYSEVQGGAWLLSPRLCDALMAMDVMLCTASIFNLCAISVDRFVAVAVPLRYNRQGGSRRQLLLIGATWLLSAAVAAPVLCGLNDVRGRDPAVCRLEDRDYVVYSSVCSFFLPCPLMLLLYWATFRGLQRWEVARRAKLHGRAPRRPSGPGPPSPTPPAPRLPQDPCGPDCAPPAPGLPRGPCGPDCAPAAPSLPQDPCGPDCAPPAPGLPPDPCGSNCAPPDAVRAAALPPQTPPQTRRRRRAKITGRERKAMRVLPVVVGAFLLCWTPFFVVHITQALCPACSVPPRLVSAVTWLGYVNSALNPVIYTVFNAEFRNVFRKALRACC
Text: as §3, with “Biological activity of the compounds has been determined in radioligand binding assays. These” for “These”, “ones. In the same way, binding affinities of the test compounds to the dopamine D1 receptor were determined when using native membrane preparations from porcine striatum and the D1 selective radioligand [^3H]SCH 23390.” for “ones.”
as §2

[5] = target: T4, dopamine D1 receptor (Sus scrofa, UniProt P50130); assay: radioligand binding assay, dopamine D1 receptor, [3H]SCH 23390
T4 construct: native membrane preparations from porcine striatum; from tissue; host or cells: porcine striatum
T4 sequence (P50130 whole entry): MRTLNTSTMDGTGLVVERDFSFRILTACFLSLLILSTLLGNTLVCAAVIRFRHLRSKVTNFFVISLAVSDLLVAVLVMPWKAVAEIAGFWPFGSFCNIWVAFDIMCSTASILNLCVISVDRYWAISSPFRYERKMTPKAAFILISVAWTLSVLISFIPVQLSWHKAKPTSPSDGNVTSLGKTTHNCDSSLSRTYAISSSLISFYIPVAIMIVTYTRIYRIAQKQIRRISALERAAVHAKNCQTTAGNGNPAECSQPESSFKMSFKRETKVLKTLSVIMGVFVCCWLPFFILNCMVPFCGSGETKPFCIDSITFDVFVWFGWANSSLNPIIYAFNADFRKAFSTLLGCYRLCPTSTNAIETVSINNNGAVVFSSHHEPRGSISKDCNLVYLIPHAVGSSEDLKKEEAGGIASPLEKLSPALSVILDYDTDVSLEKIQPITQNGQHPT
Text: as §3, with “Biological activity of the compounds has been determined in radioligand binding assays. These” for “These”, “ones. In the same way, binding affinities of the test compounds to the dopamine D1 receptor were determined when using native membrane preparations from porcine striatum and the D1 selective radioligand [^3H]SCH 23390.” for “ones.”
as §2

[6] = target: alpha-1; assay: radioligand binding assay, adrenergic alpha-1 receptor, [3H]prazosin; details: porcine cortical membranes, mean of two to five experiments in triplicate, read-out: Ki alpha1
Experimental: as §1, §2

[7] = target: human D2long, D2short (Homo sapiens, UniProt P14416); assay: biochemical; assay type: binding
Chain of human D2long, D2short (P14416 whole entry): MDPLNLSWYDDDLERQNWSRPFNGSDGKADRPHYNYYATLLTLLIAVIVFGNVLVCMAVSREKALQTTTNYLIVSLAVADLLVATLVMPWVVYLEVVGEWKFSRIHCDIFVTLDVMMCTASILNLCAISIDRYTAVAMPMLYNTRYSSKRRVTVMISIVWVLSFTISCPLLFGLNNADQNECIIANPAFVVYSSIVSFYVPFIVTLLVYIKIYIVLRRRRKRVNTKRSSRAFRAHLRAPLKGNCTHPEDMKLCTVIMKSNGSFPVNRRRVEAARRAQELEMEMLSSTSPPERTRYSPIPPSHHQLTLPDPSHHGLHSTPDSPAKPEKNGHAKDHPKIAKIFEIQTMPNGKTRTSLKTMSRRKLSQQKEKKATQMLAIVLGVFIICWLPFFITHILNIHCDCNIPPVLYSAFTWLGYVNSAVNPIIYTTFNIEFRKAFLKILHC
Experimental: as §3

[8] = porcine cortex membranes, mean of two to five experiments in triplicate, read-out: Ki 5-HT1a
[9] = porcine cortex membranes, [3H]ketanserin, mean of two to five experiments in triplicate, read-out: Ki 5-HT2
[10] = CHO cell membranes, mean of two to five experiments in triplicate, read-out: Ki D3
[11] = CHO cell membranes, mean of two to five experiments in triplicate, read-out: Ki D4.4
[12] = porcine striatum membranes, mean of two to five experiments in triplicate, read-out: Ki D1
[13] = CHO cell membranes, [3H]spiperone; mean of two to five experiments in triplicate; read-out: Ki D2

T1 sequence (P50129 whole entry): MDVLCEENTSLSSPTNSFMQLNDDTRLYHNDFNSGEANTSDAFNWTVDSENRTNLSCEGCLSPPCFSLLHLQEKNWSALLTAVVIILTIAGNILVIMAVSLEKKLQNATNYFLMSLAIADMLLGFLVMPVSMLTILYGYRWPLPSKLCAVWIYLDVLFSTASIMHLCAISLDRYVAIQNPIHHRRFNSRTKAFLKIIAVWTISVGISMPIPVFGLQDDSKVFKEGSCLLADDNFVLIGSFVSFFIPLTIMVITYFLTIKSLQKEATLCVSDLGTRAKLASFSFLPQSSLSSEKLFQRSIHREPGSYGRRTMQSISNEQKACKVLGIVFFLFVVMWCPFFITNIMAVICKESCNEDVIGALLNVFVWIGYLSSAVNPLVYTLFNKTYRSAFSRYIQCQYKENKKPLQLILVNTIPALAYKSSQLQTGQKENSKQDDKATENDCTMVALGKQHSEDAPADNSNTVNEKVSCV

Row | Ki [1] [µM] | Ki [2, 8] [nM] | Ki [1, 9] [µM] | Ki [3, 10] [µM] | Ki [4, 11] [µM] | Ki [5, 12] [µM] | Ki [6] [µM] | Ki [7, 13] [µM] | SMILES | Ki ([3]; read-out: Ki D3, CHO cell membranes, mean of two to five experiments in triplicate) [µM] | Ki ([4]; read-out: Ki D4.4, CHO cell membranes, mean of two to five experiments in triplicate) [µM] | Ki ([5]; read-out: Ki D1, porcine striatum membranes, mean of two to five experiments in triplicate) [µM] | Ki ([2]; read-out: Ki 5-HT1a, porcine cortex membranes, mean of two to five experiments in triplicate) [nM] | Ki ([7]; read-out: Ki D2; CHO cell membranes, [3H]spiperone; mean of two to five experiments in triplicate) [µM]
1 | > 5 | < 50 |  |  |  |  |  |  | Cc1ccc(CNCC2(F)CCN(C(=O)c3ccc(F)s3)CC2)nc1 [Example E2] |  |  |  |  | 
2 |  | < 50 | > 5 |  |  |  |  |  | Cc1ccc(CNCC2(F)CCN(C(=O)c3cc(Br)c(Br)s3)CC2)nc1 [Example E8, 4,5-Dibromothien-2-yl-[4-fluoro-4-[[(5-methylpyridin-2-ylmethyl)amino]methyl]-piperidin-1-yl]-methanone] |  |  |  |  | 
3 | > 5 | < 50 |  | > 5 | 0.501 to 5 | > 5 | 0.501 to 5 | > 5 | COc1c(C(=O)N2CCC(F)(CNCc3ccc(C)cn3)CC2)csc1Br [Example E22, 5-Bromo-4-methoxythion-3-yl-[4-fluoro-4-[[(5-methylpyridin-2-ylmethyl)amino]methyl]piperidin-1-yl]-methanone] |  |  |  |  | 
4 |  | < 50 | > 5 |  |  |  |  |  | Cc1ccc(CNCC2(F)CCN(C(=O)c3cc(Br)c(Br)o3)CC2)nc1 [Example E32, 4,5-Dibromofuran-2-yl-[4-fluoro-4-[[(5-mothylpyridin-2-ylmethyl)amino]methyl]piperidin-1-yl]-methanone] |  |  |  |  | 
5 |  | 501 to 5000 | > 5 |  |  |  |  |  | Cc1ccc(CNCC2(F)CCN(C(=O)c3ccc[nH]3)CC2)nc1 [Example E37, [4-Fluoro-4-[[(5-methylpyridin-2-ylmethyl)amino]methyl]piperidin-1-yl]-pyrrol-2-yl-methanone] |  |  |  |  | 
6 | > 5 | 501 to 5000 |  |  |  |  |  |  | Cc1ccc(CNCC2(F)CCN(C(=O)c3cc[nH]n3)CC2)nc1 [Example E38] |  |  |  |  | 

Continued, compound first:

Row | SMILES | Ki [1] [µM] | Ki [2, 8] [nM] | Ki [1, 9] [µM] | Ki [3, 10] [µM] | Ki [4, 11] [µM] | Ki [5, 12] [µM] | Ki [6] [µM] | Ki [7, 13] [µM] | Ki ([3]; read-out: Ki D3, CHO cell membranes, mean of two to five experiments in triplicate) [µM] | Ki ([4]; read-out: Ki D4.4, CHO cell membranes, mean of two to five experiments in triplicate) [µM] | Ki ([5]; read-out: Ki D1, porcine striatum membranes, mean of two to five experiments in triplicate) [µM] | Ki ([2]; read-out: Ki 5-HT1a, porcine cortex membranes, mean of two to five experiments in triplicate) [nM] | Ki ([7]; read-out: Ki D2; CHO cell membranes, [3H]spiperone; mean of two to five experiments in triplicate) [µM]
7 | CSc1ccc(C(=O)N2CCC(F)(CNCc3ccc(C)cn3)CC2)s1 [Example E12, [4-Fluoro-4-[[(5-methylpyridin-2-ylmethyl)amino]methyl]piperidin-1-yl]-5-mothylthiothien-2-yl-methanone] | > 5 | < 50 |  | > 5 | 0.501 to 5 | > 5 | 0.501 to 5 | > 5 |  |  |  |  | 
8 | Cc1ccc(CNCC2(F)CCN(C(=O)c3ccc(-c4ccccc4)s3)CC2)nc1 [Example E13, [4-Fluoro-4-[[(5-methylpyridin-2-ylmethyl)amino]methyl]piperidin-1-yl]-5-phenylthien-2-yl-mathanone] | 0.501 to 5 | 50 to 500 |  | 0.501 to 5 | > 5 | > 5 | 0.501 to 5 | 0.501 to 5 |  |  |  |  | 
9 | Cc1ccc(CNCC2(F)CCN(C(=O)c3ccc(-c4ccccn4)s3)CC2)nc1 [Example E14, [4-Fluoro-4-[[(5-methylpyridin-2-ylmethyl)amino]methyl]piperidin-1-yl]-5-pyridin-2-ylthien-2-yl-methanone] |  | 50 to 500 | 0.501 to 5 | > 5 | > 5 | > 5 | 0.501 to 5 | > 5 |  |  |  |  | 
10 | Cc1ccc(CNCC2(F)CCN(C(=O)c3ccc(-c4cccs4)s3)CC2)nc1 [Example E15, [2,2']Bithien-5-yl-[4-fluoro-4-[[(5-methylpyridin-2-ylmethyl)amino]methyl]piperidin-1-yl]-methanone] | 0.501 to 5 | 50 to 500 |  | 0.501 to 5 | > 5 | > 5 | 0.501 to 5 | > 5 |  |  |  |  | 
11 | Cc1ccc(CNCC2(F)CCN(C(=O)c3ccc(-c4csc(C)n4)s3)CC2)nc1 [Example E16, [4-Fluoro-4-[[(5-methylpyridin-2-ylmethyl)amino]methyl]piperidin-1-yl]-5-(2-methylthiazol-4-yl)thien-2-yl-methanone] |  | 50 to 500 | > 5 | 0.501 to 5 | > 5 | > 5 | 0.501 to 5 | > 5 |  |  |  |  | 
12 | Cc1ccc(CNCC2(F)CCN(C(=O)c3sccc3-n3cccc3)CC2)nc1 [Example E17, [4-Fluoro-4-[[(5-methylpyridin-2-ylmethyl)amino]methyl]piperidin-1-yl]-3-pyrrol-1-ylthion-2-yl-methanone] | > 5 | 50 to 500 |  | > 5 | 0.501 to 5 | > 5 | 0.501 to 5 | > 5 |  |  |  |  | 
13 | Cc1ccc(CNCC2(F)CCN(C(=O)c3ccsc3Br)CC2)nc1 [Example E19, 2-Bromothien-3-yl-[4-fluoro-4-[[(5-methylpyridin-2-ylmethyl)amino]methyl]piperidin-1-yl]-methanone] |  | < 50 | > 5 | > 5 | 0.501 to 5 | > 5 | 0.501 to 5 | > 5 |  |  |  |  | 
14 | COc1cscc1C(=O)N1CCC(F)(CNCc2ccc(C)cn2)CC1 [Example E20, [4-Fluoro-4-[[(5-mothylpyridin-2-ylmothyl)amino]methyl]piperidin-1-yl]-4-methoxythien-3-yl-methanone] | > 5 | 50 to 500 |  | > 5 | 0.501 to 5 | > 5 | > 5 | > 5 |  |  |  |  | 
15 | COc1c(C(=O)N2CCC(F)(CNCc3ccc(C)cn3)CC2)csc1Cl [Example E21, 5-Chloro-4-methoxythien-3-yl-[4-fluoro-4-[[(5-methylpyridin-2-ylmethyl)amino]methyl]piperidin-1-yl]-methanone] |  | < 50 | > 5 | > 5 | 0.501 to 5 | > 5 | 0.501 to 5 | > 5 |  |  |  |  | 
16 | Cc1ccc(CNCC2(F)CCN(C(=O)c3cc4ccccc4s3)CC2)nc1 [Example E23, Benzo[b]thien-2-yl-[4-fluoro-4-[[(5-methyl-pyridin-2-ylmethyl)amino]methyl]-piperidin-1-yl]-methanone] |  | 50 to 500 | > 5 | > 5 | 0.501 to 5 | > 5 | 0.501 to 5 | > 5 |  |  |  |  | 
17 | Cc1ccc(CNCC2(F)CCN(C(=O)c3coc4ccccc34)CC2)nc1 [Example E36] |  |  |  |  |  |  |  |  | > 5 | 0.501 to 5 | > 5 | < 50 | > 5
